Assay [1] is described as follows: luciferase reporter signal suppression in cells – H4 neuroglioma cells, luminescence, dose response (AID 1990). Type of assay: functional, cell-based.
Assay [2] concerns HEK293. The assay is described as follows: inhibition of NOD1-driven NF-kB reporter – cell-based, luminescence, uHTS, primary screen (AID 1578). The class given is functional. Particulars: Homo sapiens.
For assay [3], the system named is HEK293. The assay can be described thus: cells. Particulars: Homo sapiens. The class given is functional, cell-based.
Assay [4] can be described thus: Luminescence Cell-Based Dose Response HTS to Identify Inhibitors of 5'UTR Stem-Loop Driven Prion Protein mRNA Translation in H4 Neuroglioblastoma Cells. [Related pubchem assays: 1827 (Project Summary), 1813 (Primary HTS)]. Type of assay: functional.
Assay [5] is described as follows: alpha-synuclein stem-loop luciferase translation blockers – H4 neuroglioma cells, luminescence, confirmation (AID 1988). The class given is functional, cell-based.
Assay [6] deals with HEK293. The assay is described as follows: cells. Particulars: Homo sapiens. Type of assay: functional, cell-based. This is another data set of the same source.
Assay [7] addresses Nucleotide-binding oligomerization domain-containing protein 2 (Homo sapiens, UniProt Q9HC29). The assay can be described thus: inhibition of NOD2-driven NF-kB reporter – cell-based, luminescence, uHTS, HEK293 (AID 1566). The class given is functional.
Assay [8] deals with HEK293. The assay is described as follows: NOD2 signaling inhibitors in MDP-stimulated cells, cell-based, uHTS, luminescence (AID 2001). The class given is functional. The note with it: Homo sapiens.
Assay [9] concerns HEK293. The assay can be described thus: cells. The class given is functional, cell-based. Particulars: Homo sapiens. This is another data set of the same source.
Assay [10] is described as follows: viability of PTEN-deleted HCT116 cells – cell-based, HCT116 PTEN knockout, dose response (AID 1047).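 Also: HCT116 colon tumor cells with PTEN knocked out; cells exposed to compound for 60 hours before readout; potency for loss of cell viability measured by luminescence.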 Type of assay: functional.
Assay [11] in a line: viability of HCT116 lacking mutant beta-catenin – cell-based, human colon tumor, dose response (AID 1045).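 Also: HCT116 colon tumor cells with beta catenin knocked out; cells exposed to compound for 60 hours.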 Type of assay: functional.
Assay [12] concerns the target Sphingosine 1-phosphate receptor 4 (Homo sapiens, UniProt O95977). The assay can be described thus: Fluorescence dose response cell-based high throughput screening assay for antagonists of the Sphingosine 1-Phosphate Receptor 4 (S1P4). [Related pubchem assays: 1524 (Confirmation in triplicates.), 1510 (Primary screen.)]. The class given is functional.
Assay [13] concerns the target Sphingosine 1-phosphate receptor 1 (Homo sapiens, UniProt P21453). Type of assay: functional.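 Also: Tango beta-arrestin reporter U2OS cells stimulated with S1P near its EC80; inhibitor potency meaning antagonism of receptor activation by the natural agonist.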
In a further assay the test system is INS1. The assay is described as follows: INS-1E survival protection against cytokine death – cell-based, luminescence, retest, dose response (AID 449756).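 Also: cell death triggered by IL-1 beta plus TNF-alpha plus IFN-gamma mixture; protective hits raise ATP signal compared with cytokine alone wells.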 The class given is functional. Particulars: Rattus norvegicus.
In assay [14] the target is Beta-2 adrenergic receptor (Homo sapiens, UniProt P07550). The assay is described as follows: ADRB2 activation measured by internalization – cell-based, FAP fluorogen, flow cytometry, cherry pick 1, dose response (AID 588763). Type of assay: functional.
Assay [15] in a line: reduction of Shn3 3'UTR-driven luciferase in osteoblasts – cell-based, Clone20 osteoblasts, firefly luciferase, cherry-picked, dose response (AID 624132).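 Also: firefly luciferase luminescence from reporter carrying the Shn3 3'UTR in osteoblasts.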 The class given is functional.
The nature of assay [16]: loss of viability in HepG2 cells – cell-based, CellTiter-Glo, cherry-picked, cytotoxicity control for Shn3 inhibitor project, dose response (AID 624134). Type of assay: functional.
The nature of assay [17]: non-specific 3'UTR reporter inhibition in Clone20-Shn3RL – cell-based, Renilla luciferase, cherry-picked, counter-screen for Shn3 inhibitor project, dose response (AID 624133). The class given is functional.
The nature of assay [18]: reduced cellular PGC1a acetyl-lysine signal – cell-based, cherry-picked samples, dose response (AID 720514).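 Also: potency may reflect raised or lowered acetylation signal.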 The class given is functional.
For another assay, the target named is Nonstructural protein 1 (Influenza A virus, UniProt Q194T2). Type of assay: functional, Influenza A virus (A/California/07/2009(H1N1)).
The target in the next assay is Cysteine protease ATG4B (Homo sapiens, UniProt Q9Y4P1). Type of assay: functional.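 Also: Fluorescence-based dose-response confirmation assay measuring inhibition of ATG4B activity.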
In a further assay the target is Phospholipase A2 (Homo sapiens, UniProt P04054). The class given is functional.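 Also: confirmatory dose-response counterscreen on phospholipase A2, testing hits that came from an ultra-high-throughput screen for ATG4B inhibitors.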
Assay [19] deals with T1, Beta-adrenergic receptor kinase 1 (Homo sapiens, UniProt P25098). The assay is described as follows: aptamer displacement from bead-bound GRK2 – biochemical, cherry pick 1, bead flow cytometry, dose response (AID 504500).
The target in assay [20] is T1, Beta-adrenergic receptor kinase 1. The assay is described as follows: blockers of aptamer binding to GRK2 – biochemical, flow cytometry beads, FAM-aptamer, powder set 1, dose response (AID 588720).
For the next assay, the target named is T2, Phospholipase D1 (Homo sapiens, UniProt Q13393).
T2 sequence (Q13393 whole entry): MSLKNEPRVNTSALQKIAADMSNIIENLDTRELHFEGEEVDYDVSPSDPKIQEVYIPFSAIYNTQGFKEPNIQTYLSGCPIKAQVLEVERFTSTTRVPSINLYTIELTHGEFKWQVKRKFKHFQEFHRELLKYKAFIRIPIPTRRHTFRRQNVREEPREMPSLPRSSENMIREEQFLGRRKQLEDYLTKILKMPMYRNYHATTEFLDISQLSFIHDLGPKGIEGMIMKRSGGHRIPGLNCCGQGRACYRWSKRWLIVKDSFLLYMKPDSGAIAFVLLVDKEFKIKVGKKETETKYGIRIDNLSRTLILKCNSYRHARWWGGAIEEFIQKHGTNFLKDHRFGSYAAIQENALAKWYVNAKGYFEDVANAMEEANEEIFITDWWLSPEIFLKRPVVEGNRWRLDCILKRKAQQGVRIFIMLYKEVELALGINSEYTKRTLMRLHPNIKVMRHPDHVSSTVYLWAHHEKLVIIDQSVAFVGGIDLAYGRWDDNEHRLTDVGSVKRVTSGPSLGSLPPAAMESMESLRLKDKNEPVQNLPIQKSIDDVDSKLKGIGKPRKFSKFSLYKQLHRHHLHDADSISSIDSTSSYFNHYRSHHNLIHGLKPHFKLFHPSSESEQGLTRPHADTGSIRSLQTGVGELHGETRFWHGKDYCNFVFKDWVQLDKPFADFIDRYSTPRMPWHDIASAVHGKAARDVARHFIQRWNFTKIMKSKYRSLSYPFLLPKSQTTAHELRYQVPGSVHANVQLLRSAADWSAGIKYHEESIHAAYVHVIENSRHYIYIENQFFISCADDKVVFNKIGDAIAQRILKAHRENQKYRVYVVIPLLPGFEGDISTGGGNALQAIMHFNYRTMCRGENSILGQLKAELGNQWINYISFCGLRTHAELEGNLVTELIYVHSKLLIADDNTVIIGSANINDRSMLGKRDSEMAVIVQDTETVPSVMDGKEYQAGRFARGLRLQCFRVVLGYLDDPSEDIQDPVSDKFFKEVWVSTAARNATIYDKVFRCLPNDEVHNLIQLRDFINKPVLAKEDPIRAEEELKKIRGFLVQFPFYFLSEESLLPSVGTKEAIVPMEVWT
The assay is described as follows: PLD1 purified enzyme concentration response. [Related pubchem assays (depositor defined):AID588854]. Type of assay: functional.

The target of the next assay is Phospholipase D2 (Homo sapiens, UniProt O14939). The assay can be described thus: PLD2 purified enzyme concentration response. [Related pubchem assays (depositor defined):AID588854]. The class given is functional.
Another assay concerns Jurkat. The assay can be described thus: SAR Analysis of small molecule inhibitors of […] specific antigen receptor-induced NF-kB activation in a Jurkat cell line using a luminescence assay - Set 3. [Related pubchem assays (depositor defined):AID435022, AID435025, AID465]. Type of assay: functional, cell-based. Particulars: Homo sapiens.
The test system of assay [21] is HEK293. The assay can be described thus: SAR Analysis of small molecule inhibitors of B-cell specific antigen receptor-induced NF-kB activation in a HEK-293T cell line using a luminescence assay - Set 2. [Related pubchem assays (depositor defined):AID435022, AID435025, AID489021]. Type of assay: functional, cell-based. Particulars: Homo sapiens.
The test system of assay [22] is HEK293. The assay is described as follows: HEK293T cell viability loss, resazurin readout – resazurin fluorescence, cytotoxicity control for NF-kB activator project, SAR follow-up (AID 493251). Type of assay: functional, cell-based. The note with it: Homo sapiens.

Activity calls are given as the source filed them.

T1 sequence (P25098 whole entry): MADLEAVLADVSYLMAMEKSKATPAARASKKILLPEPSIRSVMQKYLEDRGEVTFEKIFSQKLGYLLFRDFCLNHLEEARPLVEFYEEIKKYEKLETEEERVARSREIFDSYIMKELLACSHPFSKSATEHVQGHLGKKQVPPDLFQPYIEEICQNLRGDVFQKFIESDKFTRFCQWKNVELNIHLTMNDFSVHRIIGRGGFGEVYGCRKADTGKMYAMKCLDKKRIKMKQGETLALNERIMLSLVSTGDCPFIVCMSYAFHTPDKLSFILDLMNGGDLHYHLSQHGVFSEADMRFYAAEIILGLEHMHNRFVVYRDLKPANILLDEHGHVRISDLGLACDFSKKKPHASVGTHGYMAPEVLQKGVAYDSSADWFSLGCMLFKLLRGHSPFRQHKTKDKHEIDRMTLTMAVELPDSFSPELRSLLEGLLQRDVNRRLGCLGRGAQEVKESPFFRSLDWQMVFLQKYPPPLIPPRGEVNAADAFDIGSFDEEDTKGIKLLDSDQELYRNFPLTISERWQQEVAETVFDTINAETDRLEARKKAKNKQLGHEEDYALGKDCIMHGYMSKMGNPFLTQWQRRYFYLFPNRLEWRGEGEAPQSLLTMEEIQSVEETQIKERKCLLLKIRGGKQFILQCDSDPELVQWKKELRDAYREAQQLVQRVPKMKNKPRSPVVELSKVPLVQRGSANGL
Sequence of Phospholipase A2 (P04054 whole entry): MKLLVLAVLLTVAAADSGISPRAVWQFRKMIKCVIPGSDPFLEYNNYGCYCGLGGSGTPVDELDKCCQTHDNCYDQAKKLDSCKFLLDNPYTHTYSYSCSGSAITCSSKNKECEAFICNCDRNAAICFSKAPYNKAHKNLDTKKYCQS
Sequence of Cysteine protease ATG4B (Q9Y4P1 whole entry): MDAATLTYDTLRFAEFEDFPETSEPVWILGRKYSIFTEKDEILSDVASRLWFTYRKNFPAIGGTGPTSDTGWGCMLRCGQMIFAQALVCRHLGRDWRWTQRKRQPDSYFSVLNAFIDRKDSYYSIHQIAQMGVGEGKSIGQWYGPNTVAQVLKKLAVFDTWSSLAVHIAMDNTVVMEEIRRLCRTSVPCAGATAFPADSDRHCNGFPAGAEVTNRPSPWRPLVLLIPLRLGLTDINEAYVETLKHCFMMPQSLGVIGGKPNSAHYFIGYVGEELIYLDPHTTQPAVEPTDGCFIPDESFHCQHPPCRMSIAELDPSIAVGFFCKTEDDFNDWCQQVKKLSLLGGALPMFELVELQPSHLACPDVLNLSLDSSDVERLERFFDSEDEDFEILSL
Sequence of Beta-2 adrenergic receptor (P07550 whole entry): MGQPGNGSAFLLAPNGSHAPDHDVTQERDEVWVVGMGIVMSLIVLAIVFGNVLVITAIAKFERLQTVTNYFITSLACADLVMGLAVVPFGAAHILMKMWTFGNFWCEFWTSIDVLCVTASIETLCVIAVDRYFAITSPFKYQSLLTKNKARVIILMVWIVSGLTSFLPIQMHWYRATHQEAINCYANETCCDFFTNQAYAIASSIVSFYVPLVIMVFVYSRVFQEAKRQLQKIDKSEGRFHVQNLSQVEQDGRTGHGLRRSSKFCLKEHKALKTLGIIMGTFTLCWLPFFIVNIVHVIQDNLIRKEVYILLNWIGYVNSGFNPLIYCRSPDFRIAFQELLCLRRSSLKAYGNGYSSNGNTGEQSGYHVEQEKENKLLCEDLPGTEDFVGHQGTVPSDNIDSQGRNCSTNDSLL
Sequence of Nucleotide-binding oligomerization domain-containing protein 2 (Q9HC29 whole entry, the tested form may be a part): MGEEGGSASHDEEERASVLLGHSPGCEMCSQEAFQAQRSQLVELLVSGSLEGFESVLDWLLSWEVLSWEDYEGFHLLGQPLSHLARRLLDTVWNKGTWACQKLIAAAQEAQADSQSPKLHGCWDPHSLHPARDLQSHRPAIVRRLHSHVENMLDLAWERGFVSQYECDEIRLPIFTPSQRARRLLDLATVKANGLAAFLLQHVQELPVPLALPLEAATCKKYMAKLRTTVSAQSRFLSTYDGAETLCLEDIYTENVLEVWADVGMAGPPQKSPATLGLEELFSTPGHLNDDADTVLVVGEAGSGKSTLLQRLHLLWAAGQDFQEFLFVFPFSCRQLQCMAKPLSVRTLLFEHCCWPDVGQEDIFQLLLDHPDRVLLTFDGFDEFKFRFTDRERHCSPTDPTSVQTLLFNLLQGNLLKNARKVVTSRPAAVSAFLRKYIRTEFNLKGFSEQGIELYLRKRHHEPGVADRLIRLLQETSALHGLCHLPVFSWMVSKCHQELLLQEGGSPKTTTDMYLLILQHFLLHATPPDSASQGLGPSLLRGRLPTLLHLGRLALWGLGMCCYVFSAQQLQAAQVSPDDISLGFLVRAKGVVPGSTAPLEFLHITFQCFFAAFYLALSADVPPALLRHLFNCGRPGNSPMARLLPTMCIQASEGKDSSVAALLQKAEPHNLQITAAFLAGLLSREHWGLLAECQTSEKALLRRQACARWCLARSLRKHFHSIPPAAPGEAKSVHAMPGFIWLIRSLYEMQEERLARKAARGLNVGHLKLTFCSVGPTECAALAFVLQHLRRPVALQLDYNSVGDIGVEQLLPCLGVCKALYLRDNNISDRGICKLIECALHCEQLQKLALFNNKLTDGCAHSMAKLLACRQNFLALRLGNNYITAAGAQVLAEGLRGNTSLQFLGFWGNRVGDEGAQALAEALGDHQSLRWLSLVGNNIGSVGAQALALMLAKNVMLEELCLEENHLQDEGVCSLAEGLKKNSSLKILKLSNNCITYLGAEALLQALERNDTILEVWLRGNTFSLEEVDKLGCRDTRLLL
Sequence of Sphingosine 1-phosphate receptor 1 (P21453 whole entry): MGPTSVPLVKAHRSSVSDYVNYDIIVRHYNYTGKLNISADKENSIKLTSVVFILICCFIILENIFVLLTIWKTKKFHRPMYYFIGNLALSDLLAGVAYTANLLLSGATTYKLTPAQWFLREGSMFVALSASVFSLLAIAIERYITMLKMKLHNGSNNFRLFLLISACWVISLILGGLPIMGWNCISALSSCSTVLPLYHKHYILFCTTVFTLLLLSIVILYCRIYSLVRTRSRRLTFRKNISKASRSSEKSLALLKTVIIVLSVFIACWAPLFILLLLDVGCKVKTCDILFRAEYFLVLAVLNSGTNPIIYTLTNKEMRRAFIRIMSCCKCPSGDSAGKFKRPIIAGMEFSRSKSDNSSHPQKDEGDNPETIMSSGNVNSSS
Sequence of Sphingosine 1-phosphate receptor 4 (O95977 whole entry): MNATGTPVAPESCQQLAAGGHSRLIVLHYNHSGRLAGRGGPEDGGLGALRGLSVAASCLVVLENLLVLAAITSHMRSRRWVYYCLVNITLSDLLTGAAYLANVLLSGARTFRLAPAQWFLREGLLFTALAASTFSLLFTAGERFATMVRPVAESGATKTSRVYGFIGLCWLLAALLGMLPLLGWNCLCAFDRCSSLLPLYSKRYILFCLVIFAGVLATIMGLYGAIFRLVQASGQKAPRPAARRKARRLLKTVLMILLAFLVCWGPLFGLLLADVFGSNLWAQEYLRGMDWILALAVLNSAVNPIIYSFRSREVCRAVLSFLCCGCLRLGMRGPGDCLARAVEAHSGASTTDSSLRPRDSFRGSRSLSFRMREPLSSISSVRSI
Sequence of Phospholipase D2 (O14939 whole entry): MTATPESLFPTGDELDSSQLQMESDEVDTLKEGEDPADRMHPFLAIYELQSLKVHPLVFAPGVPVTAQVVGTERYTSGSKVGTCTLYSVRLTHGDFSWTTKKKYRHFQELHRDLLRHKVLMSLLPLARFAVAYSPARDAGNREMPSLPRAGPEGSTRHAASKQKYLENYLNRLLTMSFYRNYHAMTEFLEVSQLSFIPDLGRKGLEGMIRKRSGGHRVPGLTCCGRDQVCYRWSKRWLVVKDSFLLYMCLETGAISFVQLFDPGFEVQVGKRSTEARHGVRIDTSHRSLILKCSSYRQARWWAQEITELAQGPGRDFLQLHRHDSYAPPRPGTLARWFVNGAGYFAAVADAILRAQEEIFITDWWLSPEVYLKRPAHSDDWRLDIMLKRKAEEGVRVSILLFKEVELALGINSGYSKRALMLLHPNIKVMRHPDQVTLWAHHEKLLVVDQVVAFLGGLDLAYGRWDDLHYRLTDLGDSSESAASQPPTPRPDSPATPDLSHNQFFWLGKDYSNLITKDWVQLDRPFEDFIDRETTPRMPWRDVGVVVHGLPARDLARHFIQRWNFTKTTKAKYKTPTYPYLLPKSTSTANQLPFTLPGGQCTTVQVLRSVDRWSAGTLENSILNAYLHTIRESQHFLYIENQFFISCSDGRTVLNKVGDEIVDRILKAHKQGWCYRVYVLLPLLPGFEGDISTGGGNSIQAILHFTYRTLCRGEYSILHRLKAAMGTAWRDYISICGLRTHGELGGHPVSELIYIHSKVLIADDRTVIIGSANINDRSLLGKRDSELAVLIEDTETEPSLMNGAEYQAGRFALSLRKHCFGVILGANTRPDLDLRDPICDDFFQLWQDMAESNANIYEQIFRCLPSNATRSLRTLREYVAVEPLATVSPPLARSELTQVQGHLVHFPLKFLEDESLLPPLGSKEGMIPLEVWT
Sequence of Nonstructural protein 1 (Q194T2 whole entry): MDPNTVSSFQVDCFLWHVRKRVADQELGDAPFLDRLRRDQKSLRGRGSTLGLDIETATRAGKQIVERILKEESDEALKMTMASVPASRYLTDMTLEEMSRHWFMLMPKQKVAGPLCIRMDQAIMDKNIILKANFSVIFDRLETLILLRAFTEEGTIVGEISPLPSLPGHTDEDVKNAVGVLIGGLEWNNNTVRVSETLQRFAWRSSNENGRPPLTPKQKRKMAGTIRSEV

`Cc1ccc(-c2nc(NC(=O)c3nn(C)cc3[N+](=O)[O-])sc2C)cc1`: the EC50 in assay [1] is 5.46 µM (active); with HEK293 [2], 5.58 µM (active); in [4] it was 5.05 µM (active); in [5], 1.84 µM (active); in assay [7], 3 µM (active); in assay [10] it was 0.4 µM (active). The EC50 in assay [11] is 0.321 µM (active); in assay [14], 8.09 µM (active). Moreover, the IC50 with HEK293 [3] was 2.48 µM (active); in the assay with HEK293 [6], 14.7 µM (active); in the assay on HEK293 [8], 2.14 µM (active); in the assay with HEK293 [9] it was > 20 µM (inactive); in [12], 1.07 µM (active); in assay [13] it was 21 µM (not active). The AC50 in the assay with INS1 is 5.22 µM (active); in assay [15], 1.3 µM (active); in assay [16], 26.8 µM (active); in assay [17], 6.15 µM (active); in assay [18], 3.81 µM (active).

For `COCCNC(=O)/C(C#N)=C/c1c(N2CCN(c3ccccc3)CC2)nc2c(C)cccn2c1=O`, the values for the IC50 on Nonstructural protein 1, at Cysteine protease ATG4B and at Phospholipase A2 were > 100 µM (active), 14.7 µM (active) and 9.79 µM (active), respectively.

On to `COc1ccc(CNC(=O)CCS(=O)(=O)c2ccc(Br)cc2)cc1`, for which the EC50 in [19] is 0.7 µM (active); in assay [20], 3 µM (active).

Take `COc1cc(C(=O)NCCN2CCC3(CC2)C(=O)NCN3c2ccccc2)ccc1N`: the IC50 on Phospholipase D1 is 1.08 µM (active); at Phospholipase D2, 0.17 µM (active).

For the compound `CCOc1ccc(-c2nc(CSCC(=O)NCCC3=CCCCC3)c(C)o2)cc1`, the IC50 is 9.13 µM (active) in the assay with Jurkat, 17.6 µM (active) in the assay with HEK293 [21] and 42.4 µM (inactive) in the assay with HEK293 [22].

Source of the values: ChEMBL document CHEMBL1201862, “PubChem BioAssay data set” (2004).
